Laboratory results: US5250542A, “Peripherally selective piperidine carboxylate opioid antagonists” (Eli Lilly and Company, priority 1992, dated 1993)
Counter-ions that a name gives are not always drawn. Like-named read-outs stand apart in the source and are kept apart here.

Assays:
[1] = target: T1, peripheral opioid receptors (Mus musculus, UniProt P42866); assay: precipitated diarrhea in morphine-maintained mice (peripheral opioid activity) and comparison with the writhing test; format: in vivo; conditions: for Ratio (AD50 mouse writhing test / ED50 mouse diarrhea test): higher ratio = greater relative antagonism of peripheral opioid receptors; for ED50: mouse, 0.5 h, morphine-maintained mice, antagonist subcutaneous or oral, 30 min observation
T1 construct: Mice maintained (6 mice/cage) on 0.01M saccharin water with 1 g/1 morphine sulfate; from tissue; host or cells: living morphine-maintained mice (in vivo test; endogenous receptor)
Procedure: Determinations of peripheral opioid activity were conducted. Mice maintained (6 mice/cage) on 0.01M saccharin water with 1 g/1 morphine sulfate for a minimum of 10 days with mice averaging 3.0^+ g water/mouse/day for at least three days are used as subjects. The morphine water was removed 45 min. prior to injection with the proposed opioid antagonist. Initial testing consisted of 5 mice/dose of compound. The antagonist was given by the subcutaneous or oral, route of administration,and the mice were placed in 11-14"×4 7/12 I.D. clear plastic cylinders with white paper towels used for a floor.
The mice were then monitored visually for 30 minutes post-injection for the presence of jumping and of diarrhea. Jumping was scored as positive if at least one jump occurred in 30 min. Diarrhea was scored as positive when feces were moist enough to stain the white paper at the base of the cylinder. After 30 minutes of testing, the mice were placed back in original cages, put back on morphine water, and not tested again for 48 hrs. Lower doses of the antagonist compounds were tested until threshold doses for diarrhea were determined. Diarrhea is a peripherally mediated sign of precipitated opiate abstinence.
The extent of the effect on peripheral activity compared to central activity of the present compounds can-be determined by comparing the AD50 for the mouse writhing test with the ED50 for the mouse diarrhea test. The higher the ratio, the greater the relative antagonism of the peripheral opioid receptors by a particular compound.

[2] = target: T2, mu receptor (Rattus norvegicus, UniProt P33535); assay: opioid receptor binding assay, [3H] NAL (tritiated naloxone), mu receptor; parameters: species or system rat (Male Sprague Dawley), brain minus cerebellum; conditions: for inhibition at 0.01 µM / inhibition at 0.1 µM: 20 min
T2 construct: rat whole brain minus cerebellum for mu was homogenized; from tissue; host or cells: brain of male Sprague Dawley rats, whole brain minus cerebellum, homogenate fraction
Procedure: This assay was conducted by the following procedure.
Male Sprague Dawley rats for mu site experiments were sacrificed via decapitation and the brains were removed. The brain tissue, rat whole brain minus cerebellum for mu was homogenized in a Teflon and glass tissue homogenizer. A supernatant I, pellet IV, fraction was frozen in a nitrogen freezer at 1.33 g/ml concentration and stored for not longer than five weeks prior to use. Pellets were rehydrated with physiological buffer prior to use.
The reaction was initiated by the addition of the resuspended tissue which had been preincubated at 37° C. for 20 minutes. The reaction mixture was incubated in a 37° C. water bath for 20 minutes. The reaction was terminated by rapid filtration, (Brandel Cell Harvestor), through Whatman GF/B glass filters that had been presoaked in Krebs-Hepes buffer pH 7.4. The filters were then washed 2x with 5 ml of ice cold Krebs-Hepes buffer pH 7.4. Washed filters were placed in scintillation vials and 10 ml RedySolv, (Brandel), was added and samples counted in a Searle D-300 beta counter. Means and standard error statistics were calculated for triplicate experimental determinations in certain cases. The incubation time for the reaction mixture was 20 minutes at 37° C.
Ki values were calculated using a minitab statistical program according to the following formula: [formula] wherein IC50 is the concentration at which 50% of the ^3 H ligand is displaced by the test compounds and KD is the dissociation constant for the ^3 H ligand at the receptor site. KD can be determined as described by Bennett, "Methods in Binding Studies", Neurotransmitter Receptor Binding, Yamamura, et al., ed., p. 57-90, Raven Press, N.Y. (1978) incorporated herein by reference.
In the Table, column 1 sets forth the Example Number of the compound evaluated, column 2 the Ki value in nanomolar (nM) at the mu receptor and columns 3 and 4 the percent displacement by the test compound at the indicated concentration, i.e., 10 nm or 100 nm.

[3] = target: T3, opioid receptor (Mus musculus, UniProt P42866); assay: mouse writhing analgesis test: block of morphine-induced analgesia; format: in vivo, CF-1 male mice; parameters: unit not given here; conditions: dose of antagonist that reduced the inhibition of writhing produced by 1.25 mg/kg morphine sulfate to 50%; subcutaneous, 20 min before acetic acid
T3 construct: Five CF-1 male mice (Charles River, Portage, Mich.); from tissue; host or cells: living CF-1 male mice (in vivo test; endogenous receptor)
Procedure: In order to determine in vivo opioid receptor antagonism, the mouse writhing analgesis test was used. Test compounds were measured for their ability to block morphine-induced analgesia.
Five CF-1 male mice (Charles River, Portage, Mich.), weighing approximately 20 g after being fasted overnight, were observed simultaneously for the writhing response. The writhing response was defined as a contraction of the abdominal musculature, followed by the extension of the hind limbs, and was induced by the intraperitoneal adminstration of 0.6% acetic acid in a volumne of 1 ml/100 g body weight. The observation period was 10 min. in duration, beginning 5 min. after injection of acetic acid. The percent inhibition of writhing was calculated from the average number of writhes in the control (non-drug) group. Each data point is the mean (±standarderror) for five mice. The ED50 was defined as the dose of agonist that inhibited mean writhing by 50%. […] Each mouse was only used once. All drugs were administered subcutaneously (1 ml/100 g bwt) 20 min. before the injection of acetic acid.

[4] = read-out: % displacement at 10 nM, 10 nM test compound, [3H] naloxone 0.5 nM
[5] = read-out: % displacement at 100 nM, 100 nM test compound, [3H] naloxone 0.5 nM
[6] = 10 nM test compound, [3H] naloxone 0.5 nM, read-out: % displacement at 10 nM
[7] = 100 nM test compound, [3H] naloxone 0.5 nM, read-out: % displacement at 100 nM
[8] = read-out: % displacement at 100 nM

T2 sequence (P33535 whole entry): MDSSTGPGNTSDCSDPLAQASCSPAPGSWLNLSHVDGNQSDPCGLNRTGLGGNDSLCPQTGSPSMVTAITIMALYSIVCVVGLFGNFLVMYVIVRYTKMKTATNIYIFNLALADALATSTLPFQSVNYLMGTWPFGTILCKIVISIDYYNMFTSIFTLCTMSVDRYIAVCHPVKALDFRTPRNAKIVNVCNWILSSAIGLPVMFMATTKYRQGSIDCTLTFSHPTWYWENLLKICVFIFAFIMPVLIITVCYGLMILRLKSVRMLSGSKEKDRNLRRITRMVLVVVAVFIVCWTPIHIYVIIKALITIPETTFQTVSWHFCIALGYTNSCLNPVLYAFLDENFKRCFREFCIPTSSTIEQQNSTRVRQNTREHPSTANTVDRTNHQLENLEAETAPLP
T1 sequence (P42866 whole entry): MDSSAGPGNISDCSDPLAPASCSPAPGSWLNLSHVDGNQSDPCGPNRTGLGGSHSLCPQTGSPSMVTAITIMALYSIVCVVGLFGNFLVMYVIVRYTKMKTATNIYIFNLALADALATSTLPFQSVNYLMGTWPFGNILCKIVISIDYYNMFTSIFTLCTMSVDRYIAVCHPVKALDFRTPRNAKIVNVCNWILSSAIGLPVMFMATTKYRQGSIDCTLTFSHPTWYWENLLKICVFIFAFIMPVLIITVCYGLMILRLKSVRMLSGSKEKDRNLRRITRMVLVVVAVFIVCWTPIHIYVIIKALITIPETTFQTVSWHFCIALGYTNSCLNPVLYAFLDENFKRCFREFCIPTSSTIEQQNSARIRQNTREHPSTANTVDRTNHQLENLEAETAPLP
T3 sequence (P42866 whole entry): as above

SMILES | Ratio (AD50 mouse writhing test / ED50 mouse diarrhea test) [1] | ED50 [1] | Ki [2] | inhibition at 0.01 µM [2, 4] | inhibition at 0.1 µM [2, 5] | AD50 [3] | inhibition at 0.01 µM [2, 6] | inhibition at 0.1 µM [2, 7] | inhibition at 0.1 µM [2, 8] | inhibition at 0.01 µM ([2]; read-out: % displacement at 10 nM)
C[C@H]1CN(CC(Cc2ccccc2)C(=O)N(C)CC(=O)O)CC[C@@]1(C)c1cccc(O)c1 (relative stereo) [Example 66, [[2-[[4-(3-hydroxyphenyl)-3,4-dimethyl-1-piperidinyl]methyl]-1-oxo-3-phenylpropyl]-methylamino]acetic acid monohydrate] | < 4.7 | < 3 mg/kg | 1.96 nM | 70% | 85% | 14.0 | – | – | – | –
CNC(=O)CNC(=O)C(Cc1ccccc1)CN1CC[C@@](C)(c2cccc(OC)c2)[C@@H](C)C1 (single isomer, unassigned) [Example 82] | 17 | 0.055 mg/kg | – | – | – | .95 | 31% | 73% | – | –
C[C@H]1CN(CC(CC2CCCCC2)C(=O)NCCC(=O)O)CC[C@@]1(C)c1cccc(O)c1 (stereo partly shown) [Example 35, 3-[[3-[4-(3-hydroxyphenyl)-3,4-dimethyl-1-piperidinyl]-2-(cyclohexylmethyl)-1-oxopropyl]-amino]propanoic acid hydrochloride] | 667 | 0.06 mg/kg | 0.54 nM | 98% | 100% | 40 | – | – | – | –
C[C@H]1CN(CCC(C(=O)N(C)C)c2ccccc2)CC[C@@]1(C)c1cccc(O)c1 (relative stereo) [Example 10, trans-4-[(3-hydroxyphenyl)-3,4-dimethyl-1-piperidinyl]-2-phenyl-N,N-dimethylbutanamide hydrochloride] | 9 | 0.06 mg/kg | 1.17 nM | 89% | 100% | 0.54 | – | – | – | –
Cc1oc(=O)oc1COC(=O)CNC(=O)C(Cc1ccccc1)CN1CC[C@@](C)(c2cccc(O)c2)[C@@H](C)C1 (relative stereo) [Example 95] | 14 | 0.19 mg/kg | – | – | – | 2.7 | 79% | – | 94% | –
C[C@H]1CN(CC(Cc2ccccc2)C(=O)NCCC(=O)O)CC[C@@]1(C)c1cccc(O)c1 (stereo partly shown) [Example 57, monohydrate] | > 400 | 0.1 mg/kg | 0.5 nM | – | – | > 40 | – | – | 98% | 92%
CCNC(=O)COC(=O)CNC(=O)C(Cc1ccccc1)CN1CC[C@@](C)(c2cccc(O)c2)[C@@H](C)C1 (relative stereo) [Example 89] | < 1 | > 10 mg/kg | – | – | – | 6.0 | 94% | 99% | – | –
CNC(=O)C(Cc1ccccc1)CN1CC[C@@](C)(c2cccc(OC)c2)[C@@H](C)C1 (single isomer, unassigned) [Example 80] | 24 | 0.16 mg/kg | – | – | – | 3.9 | 0% | 37% | – | –
CC(C)CNC(=O)CNC(=O)C(Cc1ccccc1)CN1CC[C@@](C)(c2cccc(O)c2)[C@@H](C)C1 (stereo partly shown) [Example 50, N-2-[(2-methylpropyl)amino]-2-oxo-ethyl]-3-[3,4-dimethyl-4-(3-hydroxyphenyl)-1-piperidinyl-2-phenylmethyl propanamide monohydrate hydrochloride] | 26 | 0.54 mg/kg | 1.2 nM | 94% | 100% | 14.3 | – | – | – | –
CCOC(=O)CNC(=O)C(Cc1ccccc1)CN1CC[C@@](C)(c2cccc(O)c2)[C@@H](C)C1 (stereo partly shown) [Example 43, 2-[3-[4-(3-hydroxyphenyl)-3,4-dimethyl-1-piperidinyl]-1-oxo-2-(phenylmethyl)propyl]-amino]acetic acid ethyl ester hydrochloride] | 146 | 0.013 mg/kg | 0.64 nM | 98% | 99% | 1.9 | – | – | – | –
C[C@H]1CN(CC(CC2CCCCC2)C(=O)NCC(N)=O)CC[C@@]1(C)c1cccc(O)c1 (relative stereo) [Example 33, 2-[[3-[4-(3-hydroxyphenyl)-3,4-dimethyl-1-piperidinyl]-2-(cyclohexylmethyl)-1-oxophenyl]amino]acetamide monohydrochloride] | 60 | 0.17 mg/kg | 1.19 nM | 95% | 100% | 10.2 | – | – | – | –
CCNC(=O)CNC(=O)C(CCN1CC[C@@](C)(c2cccc(O)c2)[C@@H](C)C1)C1CCCCC1 (relative stereo) [Example 22, N-[2-(ethylamino)-2-oxoethyl]-4-[4-(3-hydroxyphenyl)-3,4-dimethyl-1-piperidinyl]-2-cyclohexyl butanamide hydrochloride] | > 500 | 0.08 mg/kg | 0.33 nM | 100% | 96% | > 40 | – | – | – | –
C[C@H]1CN(CC(Cc2ccccc2)C(=O)NCC(=O)OCC2CCCCC2)CC[C@@]1(C)c1cccc(O)c1 (stereo partly shown) [Example 53, 2-[[2-(phenylmethyl)-1-oxo-3-[4-(3-hydroxyphenyl)-3,%-dimethyl-1-piperidinyl]propylamino]-ethanoic acid cyclohexylmethyl estermonohydrochloride] | > 23 | 1.7 mg/kg | – | – | – | > 40 | 2% | 11% | – | –
CNC(=O)CCNC(=O)C(Cc1ccccc1)CN1CC[C@@](C)(c2cccc(O)c2)[C@@H](C)C1 (stereo partly shown) [Example 59, N-(methyl)-3-[[3-[4-(3-hydroxyphenyl)-3,4-dimethyl-1-piperidinyl]-2-(phenylmethyl)-1-oxopropyl]amino]propanamide monohydrochloride] | 11 | 0.54 mg/kg | 4.64 nM | 88% | 100% | 5.9 | – | – | – | –
